“And” between values parts separate entries of the source, which are not always exact repeats. Identical values can stand only once. Like-named read-outs stand apart in the source and are kept apart here.
Experiments:
[1] = target: T1, human MOR signaling through Gαz with RGS20 (Homo sapiens, UniProt P35372); experiment: nanoBRET assay, MOR signaling through Gαz with RGS20 (RGSz1) coexpression; assay type: cell-based; details: RGS20 (RGSz1) co-expressed
T1 construct: host or cells: HEK 293T, transient
T1 sequence (P35372 whole entry): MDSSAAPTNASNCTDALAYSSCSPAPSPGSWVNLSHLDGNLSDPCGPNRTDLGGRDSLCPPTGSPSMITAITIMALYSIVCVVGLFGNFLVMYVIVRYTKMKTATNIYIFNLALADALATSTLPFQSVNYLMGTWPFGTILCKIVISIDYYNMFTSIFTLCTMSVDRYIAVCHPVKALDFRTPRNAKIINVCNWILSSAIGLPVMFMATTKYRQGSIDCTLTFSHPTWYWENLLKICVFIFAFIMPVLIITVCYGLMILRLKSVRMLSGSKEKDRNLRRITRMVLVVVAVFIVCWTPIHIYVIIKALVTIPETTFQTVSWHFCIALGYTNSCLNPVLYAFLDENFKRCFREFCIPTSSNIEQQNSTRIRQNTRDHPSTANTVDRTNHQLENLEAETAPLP
T1 sequence (P19086 2-355 partner limits assumed): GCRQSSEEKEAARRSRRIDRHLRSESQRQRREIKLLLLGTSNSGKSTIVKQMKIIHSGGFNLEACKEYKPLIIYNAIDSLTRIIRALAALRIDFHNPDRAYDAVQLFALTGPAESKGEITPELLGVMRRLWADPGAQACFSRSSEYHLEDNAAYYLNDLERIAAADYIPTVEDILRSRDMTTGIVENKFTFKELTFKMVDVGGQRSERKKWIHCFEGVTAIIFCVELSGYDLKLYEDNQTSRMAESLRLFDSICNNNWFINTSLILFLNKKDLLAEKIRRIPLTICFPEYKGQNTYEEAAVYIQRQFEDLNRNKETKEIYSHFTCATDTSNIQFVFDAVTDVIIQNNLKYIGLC

[2] = target: T2, human MOR signaling through Gαi2^N346 K mutant (Homo sapiens, UniProt P35372); experiment: nanoBRET assay, MOR signaling through mutant Gαi2 N346K; assay type: cell-based; details: orthosteric agonist 7-hydroxymitragynine, read-out: KB (affinity of BMS-986122)
T2 construct: host or cells: HEK 293T, transient
T2 sequence (P35372 whole entry, stated change not applied): as the sequence (P35372 whole entry) above
T2 sequence (P04899 with tags, fused parts or gaps N347K partner): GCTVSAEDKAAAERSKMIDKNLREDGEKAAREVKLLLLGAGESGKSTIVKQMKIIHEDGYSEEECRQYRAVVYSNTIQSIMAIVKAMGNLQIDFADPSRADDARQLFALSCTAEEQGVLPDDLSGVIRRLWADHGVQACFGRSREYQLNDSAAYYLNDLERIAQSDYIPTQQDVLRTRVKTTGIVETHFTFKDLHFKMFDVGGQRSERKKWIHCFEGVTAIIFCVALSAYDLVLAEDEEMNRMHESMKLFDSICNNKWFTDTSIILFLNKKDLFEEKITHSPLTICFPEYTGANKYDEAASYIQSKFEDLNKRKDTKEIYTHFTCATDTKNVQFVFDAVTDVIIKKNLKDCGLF
Procedure: (§1) Human embryonic kidney (HEK) 293T cells (ATCC, Manassas, VA) maintained and transfected as described in previous work, with some modifications. Cells were cultured on 0.01% poly-L-lysine (Millipore Sigma, Darmstadt, Germany)-coated 10 cm dishes in Dulbecco’s modified Eagle medium (GIBCO, Grand Island, NY) supplemented with 5% fetal bovine serum, 1% nonessential amino acids, 1 mM sodium pyruvate, and 100 U/mL penicillin/streptomycin, maintained in an incubator at 37 °C in a 5% CO2 atmosphere. Prior to transfection, 3.0 × 10^6 cells were reseeded onto Matrigel-coated (Corning, Inc., Corning NY) 6 cm dishes and incubated for 4 h at 37 °C and 5% CO2. […]
(§2) BRET measurements between mVenus-Gβ1γ2 and masGRK3ct-nLuc for nanoBRET, and Gγ-GFP2 and Gα-rLuc8 for TruPATH, were performed to determine agonist-dependent activation of each Gα protein of interest in the presence and absence of BMS-986122, in live HEK 293T cells. […] For TruPATH, cells were incubated for 30 min at 25 °C prior to luminescence emissions being read at 515 and 410 nm. […]
(§3) This form of the operational model was selected because all parameters are constrained by default to be equal for each data set except for τ, which had no constraints. […] Statistical significance between Δlog(τ) values for each Gα subunit were calculated via one-way ANOVA with Tukey’s posthoc analysis. […]

MOR = tested on: MOR; parameters: method as in Burford et al.; details: endomorphin-1 as orthosteric agonist, allosteric ternary complex model; ref Burford et al.; cited from earlier work
[3] = tested on: human MOR signaling through different Gα subunits; experiment: nanoBRET assay, comparison or average across Gα subunits; assay type: cell-based; details: 7-hydroxymitragnine as agonist, 10 μM PAM, relative transduction coefficients compared between Gαi3 and GαoB
[4] = target: T3, human MOR signaling through Gαi3 (Homo sapiens, UniProt P35372); assay type: cell-based
T3 construct: host or cells: HEK 293T, transient
T3 sequence (P35372 whole entry): as the sequence (P35372 whole entry) above
T3 sequence (P08754 2-354 partner limits assumed): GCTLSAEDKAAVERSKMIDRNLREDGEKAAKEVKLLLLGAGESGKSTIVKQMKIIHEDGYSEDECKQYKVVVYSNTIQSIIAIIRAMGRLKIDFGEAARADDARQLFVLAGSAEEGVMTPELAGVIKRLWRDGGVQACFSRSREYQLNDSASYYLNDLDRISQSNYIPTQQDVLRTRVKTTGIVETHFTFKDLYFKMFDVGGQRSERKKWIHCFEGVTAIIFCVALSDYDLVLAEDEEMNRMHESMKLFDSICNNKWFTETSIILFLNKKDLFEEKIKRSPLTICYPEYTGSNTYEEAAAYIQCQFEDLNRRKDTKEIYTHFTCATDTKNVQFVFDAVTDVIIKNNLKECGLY

[5] = target: T4, human MOR signaling through Gαz (Homo sapiens, UniProt P35372); assay type: cell-based; details: Gαz, up to 10 μM, absence of any orthosteric agonist, no RGS20
T4 construct: host or cells: HEK 293T, transient
T4 sequence (P35372 whole entry): as the sequence (P35372 whole entry) above
T4 sequence (P19086 2-355 partner limits assumed): as the sequence (P19086 2-355 partner limits assumed) above

[6] = target: T5, human MOR signaling through Gαi3^K349R, E350G mutant (Homo sapiens, UniProt P35372); experiment: nanoBRET assay, MOR signaling through mutant Gαi3 K349R, E350G; assay type: cell-based; details: orthosteric agonist 7-hydroxymitragynine, read-out: KB (affinity of BMS-986122)
T5 construct: host or cells: HEK 293T, transient
T5 sequence (P35372 whole entry, stated change not applied): as the sequence (P35372 whole entry) above
T5 sequence (P08754 with tags, fused parts or gaps K349R/E350G partner): as the sequence (P08754 2-354 partner limits assumed) above, with K348R, E349G counted along it
Procedure: as §1, §2, §3

[7] = target: T6, human MOR signaling through Gαi1 (Homo sapiens, UniProt P35372); assay type: cell-based
T6 construct: host or cells: HEK 293T, transient
T6 sequence (P35372 whole entry): as the sequence (P35372 whole entry) above
T6 sequence (P63096 2-354 partner limits assumed): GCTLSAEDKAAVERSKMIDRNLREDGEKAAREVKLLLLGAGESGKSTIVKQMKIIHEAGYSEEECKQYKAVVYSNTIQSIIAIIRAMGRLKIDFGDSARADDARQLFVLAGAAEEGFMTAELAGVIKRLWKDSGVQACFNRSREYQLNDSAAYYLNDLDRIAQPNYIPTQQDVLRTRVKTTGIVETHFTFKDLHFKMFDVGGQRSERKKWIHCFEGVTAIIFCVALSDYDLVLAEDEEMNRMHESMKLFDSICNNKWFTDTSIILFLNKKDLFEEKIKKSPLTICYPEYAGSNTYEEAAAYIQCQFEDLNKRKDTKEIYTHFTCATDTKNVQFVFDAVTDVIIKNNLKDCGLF

[8] = target: T7, human MOR signaling through GαoB (Homo sapiens, UniProt P35372); assay type: cell-based; details: for Kb: read-out: KB (affinity of BMS-986122)
T7 construct: host or cells: HEK 293T, transient
T7 sequence (P35372 whole entry): as the sequence (P35372 whole entry) above
T7 sequence (P09471 2-354 isoform P09471-2 partner limits assumed): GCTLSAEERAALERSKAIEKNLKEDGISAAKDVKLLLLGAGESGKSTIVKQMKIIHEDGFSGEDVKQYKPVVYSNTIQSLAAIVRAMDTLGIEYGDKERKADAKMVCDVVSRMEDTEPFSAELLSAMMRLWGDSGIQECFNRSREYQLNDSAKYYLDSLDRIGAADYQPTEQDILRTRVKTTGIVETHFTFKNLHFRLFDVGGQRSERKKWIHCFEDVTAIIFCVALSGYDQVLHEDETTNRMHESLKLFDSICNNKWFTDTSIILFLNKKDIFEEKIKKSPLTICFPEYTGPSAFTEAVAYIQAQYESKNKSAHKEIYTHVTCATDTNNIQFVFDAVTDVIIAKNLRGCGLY

[9] = target: T8, human MOR signaling through Gαi3-oBct (Homo sapiens, UniProt P35372); experiment: nanoBRET assay, MOR signaling through Gαi3-oBct chimera (C-terminus of GαoB); assay type: cell-based; details: orthosteric agonist 7-hydroxymitragynine, read-out: KB (affinity of BMS-986122)
T8 construct: host or cells: HEK 293T, transient
T8 sequence (P35372 whole entry): as the sequence (P35372 whole entry) above
T8 sequence (P08754 with tags, fused parts or gaps K345A/N346K/K349R/E350G partner limits assumed): as the sequence (P08754 2-354 partner limits assumed) above, with K344A, N345K, K348R, E349G counted along it
Procedure: as §1, §2, §3

[10] = target: T9, human MOR signaling through GαoA (Homo sapiens, UniProt P35372); assay type: cell-based
T9 construct: host or cells: HEK 293T, transient
T9 sequence (P35372 whole entry): as the sequence (P35372 whole entry) above
T9 sequence (P09471 2-354 partner limits assumed): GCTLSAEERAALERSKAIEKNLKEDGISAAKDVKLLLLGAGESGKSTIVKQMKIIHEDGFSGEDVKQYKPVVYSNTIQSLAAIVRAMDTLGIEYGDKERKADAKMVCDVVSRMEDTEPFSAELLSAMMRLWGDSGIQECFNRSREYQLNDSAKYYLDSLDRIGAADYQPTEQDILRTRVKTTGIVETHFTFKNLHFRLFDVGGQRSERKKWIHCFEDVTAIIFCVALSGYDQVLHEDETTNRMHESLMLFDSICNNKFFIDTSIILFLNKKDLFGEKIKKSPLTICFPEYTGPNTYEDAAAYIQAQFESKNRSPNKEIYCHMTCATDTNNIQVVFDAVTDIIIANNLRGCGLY

[11] = target: T10, human MOR signaling through Gαi2 (Homo sapiens, UniProt P35372); assay type: cell-based; details: for Kb: read-out: KB (affinity of BMS-986122)
T10 construct: host or cells: HEK 293T, transient
T10 sequence (P35372 whole entry): as the sequence (P35372 whole entry) above
T10 sequence (P04899 2-355 partner limits assumed): as the sequence (P04899 with tags, fused parts or gaps N347K partner) above, with K346N counted along it

SMILES: COc1ccc(C2SCCN2S(=O)(=O)c2ccc(Cl)cc2)cc1Br (stereo not drawn) [BMS-986122]
- Allosteric agonism of PAM alone with RGS20 co-expression [1]: effectively eliminate the allosteric agonism
- Kb [2]: 690 ± 60 nM
- Affinity cooperativity factor α (MOR): 7.0
- Kb (MOR): 5000 nM
- ΔΔlog(τ)oB-i3 [3]: 0.708
- Kb ([4]; Gαi3 (WT), orthosteric agonist 7-Hydroxymitragynine, read-out: KB (affinity of BMS-986122)): 2300 ± 800 nM
- β (efficacy cooperativity factor of BMS-986122) ([4]; Gαi3, orthosteric agonist 7-Hydroxymitragynine, functional allosteric model): 5.9 ± 1.1
- Response of PAM alone (allosteric agonism) ([4]; Gαi3, up to 10 μM, absence of any orthosteric agonist): no response
- Emax of PAM alone (allosteric agonism) [5]: 21 ± 2%
- Kb [6]: 2800 ± 400 nM
- α (affinity cooperativity factor of BMS-986122) [7]: 5.0 ± 0.2 and 6.9 ± 0.9
- β (efficacy cooperativity factor of BMS-986122) [7]: 10 ± 0.8
- Response of PAM alone (allosteric agonism) ([7]; Gαi1, up to 10 μM, absence of any orthosteric agonist): no response
- Kb ([7]; read-out: KB (affinity of BMS-986122)): 2500 nM and 3400 nM
- β (efficacy cooperativity factor of BMS-986122) [8]: 4.2 ± 0.8
- Kb ([8]; GαoB (WT), orthosteric agonist 7-Hydroxymitragynine): 540 ± 100 nM
- Hill coefficient of R50 curve ([8]; GαoB, BMS-986122 titrated in presence of 10 μM 7-hydroxymitragynine): 3.0
- EC50 ([8]; GαoB, BMS-986122 titrated in presence of constant 10 μM 7-hydroxymitragynine, read-out: R50 (concentration of PAM which gives a half-maximal response)): 670 ± 110 nM
- β (efficacy cooperativity factor of BMS-986122) ([8]; GαoB, orthosteric agonist 7-Hydroxymitragynine, functional allosteric model): 15 ± 4.2
- Response of PAM alone (allosteric agonism) ([8]; GαoB, up to 10 μM, absence of any orthosteric agonist): no response
- Kb [8]: 620 ± 180 nM
- Kb [9]: 700 ± 60 nM
- α (affinity cooperativity factor of BMS-986122) [10]: 7.1 ± 1.0 and 4.3 ± 0.7
- β (efficacy cooperativity factor of BMS-986122) [10]: 4.2 ± 0.3
- β (efficacy cooperativity factor of BMS-986122) ([10]; GαoA, orthosteric agonist 7-Hydroxymitragynine, functional allosteric model): 12 ± 1.8
- Kb ([10]; GαoA, orthosteric agonist 7-Hydroxymitragynine, read-out: KB (affinity of BMS-986122)): 8000 ± 200 nM
- Response of PAM alone (allosteric agonism) ([10]; GαoA, up to 10 μM, absence of any orthosteric agonist): no response
- α (affinity cooperativity factor of BMS-986122) [11]: 5.9 ± 0.6 and 3.2 ± 0.3
- β (efficacy cooperativity factor of BMS-986122) [11]: 3.3 ± 0.3
- Kb ([11]; Gαi2 (WT), orthosteric agonist 7-Hydroxymitragynine): 3100 ± 700 nM
- β (efficacy cooperativity factor of BMS-986122) ([11]; Gαi2, orthosteric agonist 7-Hydroxymitragynine, functional allosteric model): 10 ± 2.8
- Response of PAM alone (allosteric agonism) ([11]; Gαi2, up to 10 μM, absence of any orthosteric agonist): no response
- Kb [11]: 2400 nM and 1500 nM and 1900 nM

Reference: PMC12138978, “Mu Opioid Receptor Positive Allosteric Modulator BMS-986122 Confers Agonist-Dependent G Protein Subtype Signaling Bias” (Biochemistry, 2025)
